Laboratory results as given in a melting point compilation (Tetko et al.; mined from patent text by program, amines drawn as free bases though some values may be those of a salt).
Residues, ends and D or L forms follow the SMILES beside them. *: point of attachment. Boc = CC(C)(C)OC(=O)*; Bn = c1ccc(C*)cc1

Row | SMILES | melting point [°C]
1 | CN(C)C(=O)C(CCN1CCC(Nc2nc3cncnc3n2Cc2ccccn2)CC1)(c1ccccc1)c1ccccc1 | 192
2 | CCC(CC)c1nn(-c2ccc(Br)cn2)cc1CCCOc1c(C)cccc1CC(=O)O | 120 to 121
3 | COc1ccc(C2COc3c(ccc(O)c3C)C2O)cc1 (configuration not stated) | 162
4 | N#Cc1ccc(N2CCC(O)C2)c2ccccc12 (configuration not stated) | 138 to 139
5 | CC1CC(=O)NN=C1c1ccc(-n2cccc2)nc1 (configuration not stated) | 192 to 193
6 | CC1(C)[C@@H](CN2CCCS2(=O)=O)CC[C@@]1(C)NCC(=O)N1C[C@@H](F)C[C@H]1C#N | 126 to 128
7 | Cc1occc1C(=O)N(O)C1CCCCC1 | 108 to 110
8 | Cc1ccc(Cn2[nH]c(N)cc2=O)cc1C(F)(F)F | 103
9 | Cc1sc(C=O)cc1C(=O)O | 173
10 | O=C(O)C(Oc1ccc(Cl)cc1)(C(F)(F)F)C(F)(F)F | 81 to 83
11 | O=C(Cc1ccc2ccccc2n1)NC1CCC2(O)C3Cc4ccc(O)c5c4C2(CCN3CC2CC2)C1O5 (configuration not stated) | 212 to 214
12 | COc1nsc(SCOCC#CI)c1C#N | 124 to 125
13 | O=C(OCc1ccccc1)c1ccc(C#Cc2ccccc2)cc1OCc1ccccc1 | 98 to 100
14 | N#Cc1ccc(N(CCOc2ccc(OCc3ccccc3)cc2)n2cnnc2)cc1 | 160 to 162
15 | Cn1nc(C(F)(F)F)n(-c2ccc(I)cc2Cl)c1=S | 117 to 119
16 | CC(=O)c1c(O)cccc1OCC(O)COc1ccc(Cl)cc1Cl (configuration not stated) | 130 to 132
17 | CC(=O)c1cc(NC(=O)OC(C)(C)C)ccc1O | 107 to 108
18 | COCCOCc1nn(C)c2c1N=C(c1ccc(-n3c(C)nc4cnccc43)cc1)CC(=O)N2C | 142 to 144
19 | CCOP(=O)(OCC)C(c1ccc2cc(O)ccc2c1)P(=S)(OCC)OCC (configuration not stated) | 85.5 to 86.5
20 | CCOC(=O)c1ccc(Br)cc1-c1ccc(OC)c(OC)c1 | 53
21 | O=C(N=C1SCCN1Cc1ccc(Cl)nc1)C(F)(F)F | 96
22 | COC(=O)C(CC(C)C)NC(=O)C(C)NC(=O)C(Cc1ccc(OCc2ccccc2)cc1)NC(=O)C(COCc1ccccc1)NC(=O)OC(C)(C)C (configuration not stated) (Boc-S(Bn)Y(Bn)AL-OMe; configuration not given here) | 67 to 71

Row | SMILES | melting point [°C]
23 | CC(C)C1(C)N=C(c2ncc(C3OCCCCO3)cc2C(=O)O)NC1=O (configuration not stated) | 60 to 69
24 | CCCc1cc(CCCOc2c(C)cc(-c3nc(C)no3)cc2C)on1 | 35 to 37
25 | NCc1ccc(C(=O)NC2CCN(C3CCCCC3)C2)cc1 (configuration not stated) | 125 to 129
26 | CCCC(=O)Nc1n[nH]c2cc(-c3ccc(OCc4ccccc4)cc3)c(-c3ccc(OCc4ccccc4)cc3)cc12 | 140
27 | COC(=O)COc1ccccc1C1C(C(=O)OC)=C(C)NC(C)=C1C(=O)OC | 153 to 155
28 | COc1cc(OC)c(-c2nc3ncccc3[nH]2)s1 | 93 to 96
29 | COc1cc([N+](=O)[O-])c(CC(=O)O)c(Cl)c1O | 231
30 | COc1ccc(C(CC(=O)Nc2ccc(NC(=O)Nc3ccccc3C)cc2)NC(=O)c2ccc(C(=O)O)cc2)cc1OC (configuration not stated) | 166
31 | Cn1cc(F)cnc1=O | 177 to 178
32 | COc1ccc(C(=O)Nc2ccc(F)c(F)c2)cc1NCc1ccc(C(=O)O)cc1 | > 240
33 | CC(C)CNc1c([N+](=O)[O-])c2nnnn2c2cnccc12 | 173 to 174
34 | Cc1sccc1C1=C(c2ccsc2C)C(F)(F)C(F)(F)C1(F)F | 73.6
35 | COC(=O)c1cc(-c2ncco2)ccc1-c1ccccc1S(=O)(=O)Nc1onc(C)c1C | 106 to 112
36 | CCCCCCCCCCC#Cc1c2ccccc2c2ccc3c(C#CCCCCCCCCCC)c4ccccc4c4ccc1c2c34 | 129 to 130
37 | OCCCOC(c1ccccc1)(c1ccccc1)c1ccccc1 | 117 to 118
38 | Nc1ccccc1SCc1noc(CSc2ccccc2N)n1 | 68
39 | O=C(CN1C(=O)c2ccccc2S1(=O)=O)OCCO | 125 to 126
40 | CSc1ccc(Nc2cc(-c3nnc(C)o3)ccn2)cc1 | 203 to 204
41 | COC(=O)c1ccc(Cc2cc3cc(Cl)ccc3n2S(=O)(=O)c2ccc(C(C)C)cc2)cc1 | 99
42 | CC(=O)N1CCc2cc(CC(C)NCCOc3ccccc3OCC(F)(F)F)cc(C#N)c21 (configuration not stated) | 57 to 59
43 | CNC(=NOC)C1=Nc2ccc(Cl)cc2C(c2ccccc2F)=NC1 | 140 to 142
44 | COC(=O)c1ccc(Cl)cc1NC(=O)Cc1cccc(OC)c1 | 144 to 146

Row | SMILES | melting point [°C]
45 | O=c1ccn(-c2cccc(C(F)(F)F)c2)nc1-c1ccnn1-c1cccc(F)c1 | 104 to 105
46 | Nc1ccc(Sc2cc(F)cc(F)c2)c(Cl)c1 | 156 to 158
47 | CC(CS(=O)(=O)c1ccc(-c2ccc(C(F)(F)F)cc2)cc1)N(O)C=O (configuration not stated) | 175
48 | CSc1nc(C)ccc1NC(=O)CCCCCCCCSc1nc2ccccc2o1 | 99 to 100
49 | COc1ccc(NC(=O)CCc2ccc(-c3c(C)sc4nc(=NS(=O)(=O)c5ccc(C)cc5)sn34)cc2)cc1OC | 203 to 204
50 | COc1cc(C(=O)CBr)cc([N+](=O)[O-])c1O | 147 to 149
51 | COC(=O)c1cc(I)cc2c(=O)cc[nH]c12 | 75 to 77
52 | C=CC(C)=CC=CC(C)=CC(=O)OCC | 52 to 53
53 | COC(=O)c1ccc2c(c1SCCCl)Cc1ccccc1CO2 | 100
54 | CC1=C(C)C(O)N(c2nnc(C(C)(C)C)s2)C1=O (configuration not stated) | 179 to 182
55 | CC(C)(C)c1ccc(N2C(=O)CCC2=O)c([N+](=O)[O-])c1 | 135 to 138
56 | CCCC(CCC)NC(=O)Nc1ccc(Cl)cc1 | 135 to 136
57 | COc1ccc(-c2coc3cc(OC(C)C)ccc3c2=O)cc1 | 245 to 246
58 | Cc1cccc(C)c1-n1cc(C#N)c(=O)n(C)c1=O | 198 to 200
59 | CNC(=O)n1nc(Oc2c(F)cc(C(F)(F)F)cc2Cl)cc1C | 87 to 88
60 | N#CCCNC(=O)c1cccc(-c2ccc3c(c2)C(c2ccc(Cl)cc2Cl)CC3)c1 (configuration not stated) | 112 to 114
61 | CC(C)(C)OC(=O)CON=C1CC(=NOCC(=O)OC(C)(C)C)c2ccccc2-c2ccccc21 | 105 to 107
62 | Cc1cccc(-n2nc(C)cc2-c2ccnc(N)c2)c1 | 124 to 125
63 | CCn1nc2c(N)nc3c(c2c1CC1(O)CCCCC1)CCCC3 | 232 to 234
64 | CC#CCC(C)(C)C(=O)/C=C/[C@@H]1[C@H]2CC(=O)O[C@H]2C[C@H]1OC(=O)c1ccccc1 | 73 to 74
65 | CC(=O)Nc1ccc(C=CC(=O)C2C(=O)OC(=O)C(C(C)=O)=C2O)cc1 (configuration not stated) | 230 to 231
66 | CCN1CCC2(CC1)c1ccccc1Sc1c(O)cccc12 | 223 to 225

Further lines, results first:

Row | melting point [°C] | SMILES
67 | 127 to 128 | CCOCc1nc2c(N)nc(C)cc2n1CCOCc1ccccc1
68 | 169 to 172 | COc1cc(/C=C/C=C/C(=O)NCCN2CCC(c3c[nH]c4ccccc34)CC2)cc(OC)c1OC(C)=O
69 | 83 to 85 | CCCc1ccc(S(=O)(=O)c2ccccc2)cc1
70 | 69 to 71 | CCCCCCCN1C(=O)C2CC(c3ccc(N)cc3)(C2)C1=O
71 | 150 to 151 | CCOc1cccc(C(=O)N2CCc3cc(O)ccc3C2)c1
72 | 288 | O=C1Cc2cc(CCN3CCN(c4nsc5ccccc45)CC3)ccc2N1
73 | 218 to 220 | O=C1CCC(N2Cc3c(OCc4cc(CN5CCOCC5)on4)cccc3C2=O)C(=O)N1 (configuration not stated)
74 | 99 to 110 | COc1cc(C2CCN(C(=O)CN(C)C)CC2)ccc1Nc1ncc2ccc(-c3ccccc3N(C)S(C)(=O)=O)n2n1
75 | 92 to 93 | CCN(CC)CCN1C(=O)c2cscc2N(C)c2ccccc21
76 | 119 to 120 | CN1CCN(c2ccc(CCCC(=O)N3CCC(c4ccc(Cl)cc4)CC3)cc2)CC1
77 | 96 to 98 | CN(CC(N)=O)c1nccc(-c2ccc(C(=O)NCCc3ccc4[nH]cc(C(=N)N)c4c3)cc2)n1
78 | 215 | CC(C(=O)Nc1ccccc1)n1nc(O)c2[nH]c3cc(Cl)ccc3c(=O)c2c1=O (configuration not stated)
79 | > 260 | Nc1ccc(-c2nc3c(s2)C(=O)c2ccccc2C3=O)o1
80 | 184 to 185 | COc1cc(C(=O)N2Cc3cccn3Cc3ccccc32)ccc1N
81 | 196 to 197 | CC(=O)c1oc2c(sc3ccccc32)c1O
82 | 170 to 173 | CN1C(=O)N(c2cccc(Cl)c2)C(=O)C1S(=O)(=O)c1ccc(F)cc1 (configuration not stated)

Row | melting point [°C] | SMILES
83 | 123 to 126 | COCc1c(-c2ccon2)ncc2[nH]c3ccc(OCc4ccccc4)cc3c12
84 | 104 to 105 | O=C1C(=O)c2ccc(Br)cc2C2=C1SCC1(CCN(CC(O)COc3ccc4cc(Br)ccc4c3)CC1)O2 (configuration not stated)
85 | 193 to 195 | CC(C)C(CS(=O)(=O)c1ccc(-c2cccc(CNC(=O)c3nc4ccccc4c(=O)[nH]3)c2)cc1)N(O)C(N)=O (configuration not stated)
86 | > 260 | CN1CCC(Sc2ccc3[nH]c(=O)[nH]c(=O)c3c2)CC1
87 | 88 to 90 | COc1ccc(N2CCc3ccccc32)c([N+](=O)[O-])c1
88 | 176 to 178 | COc1ccc(-c2nc(C)nn2-c2ccccc2S(N)(=O)=O)cc1OC
89 | 121 to 123 | COC(=O)CCc1ccc(C(c2cc(F)ccc2F)S(=O)(=O)c2ccc(Cl)cc2)nc1 (configuration not stated)
90 | 182 to 183 | CNC(=O)c1ccc(-c2nn(Cc3ccccc3)c3ccccc23)o1
91 | 154 to 155 | CCOC(=O)c1c(Nc2ccncc2)c2ccc(Cl)cc2n1C
92 | 97 to 99 | O=[N+]([O-])c1ccccc1C=[N+]([O-])c1cccc(CO)c1
93 | 75 to 78 | CCCC1(C(O)CCCN2CCC(N3Cc4ccccc4C3=O)CC2)c2ccccc2-c2ccccc21 (configuration not stated)
94 | 133 to 136 | CC(=O)Nc1ccc(OCC(O)CNC2CCc3ccccc3C2)cc1 (configuration not stated)
95 | 141 to 142 | O=C(O)CCCc1nc(-c2cccnc2)c(-c2ccccc2)s1
96 | 126 to 127 | COc1cccc(OC2CN([C@H]3CC[C@@H](c4cc5ccccc5[nH]4)CC3)C2)c1
97 | > 250 | O=c1ccc(-c2cccc(-c3ccc(=O)[nH]n3)c2)n[nH]1
